Results from US20130231290A1, “METHODS OF DIAGNOSING AND TREATING NEURODEGENERATIVE DISEASES” (DIGNITY HEALTH, priority 2010, published 2013).

Experiments:
[1] = molecular target: α7β2-nAChRs on MS/DB cholinergic neurons (Rattus norvegicus, UniProt P12390+Q05941); assay: Perforated-patch whole-cell recording of nAChR-mediated (choline/ACh-induced) currents in acutely dissociated MS/DB cholinergic neurons; format: cell-based
[2] = molecular target: T1, homomeric α7-nAChRs on VTA DAergic neurons (Rattus norvegicus, UniProt Q05941); format: cell-based
T1 construct: native nAChR responses in rat MS/DB or VTA neurons; endogenous in cells; host or cells: acutely dissociated VTA dopaminergic neurons of Wistar rats
T1 sequence (Q05941 23-502): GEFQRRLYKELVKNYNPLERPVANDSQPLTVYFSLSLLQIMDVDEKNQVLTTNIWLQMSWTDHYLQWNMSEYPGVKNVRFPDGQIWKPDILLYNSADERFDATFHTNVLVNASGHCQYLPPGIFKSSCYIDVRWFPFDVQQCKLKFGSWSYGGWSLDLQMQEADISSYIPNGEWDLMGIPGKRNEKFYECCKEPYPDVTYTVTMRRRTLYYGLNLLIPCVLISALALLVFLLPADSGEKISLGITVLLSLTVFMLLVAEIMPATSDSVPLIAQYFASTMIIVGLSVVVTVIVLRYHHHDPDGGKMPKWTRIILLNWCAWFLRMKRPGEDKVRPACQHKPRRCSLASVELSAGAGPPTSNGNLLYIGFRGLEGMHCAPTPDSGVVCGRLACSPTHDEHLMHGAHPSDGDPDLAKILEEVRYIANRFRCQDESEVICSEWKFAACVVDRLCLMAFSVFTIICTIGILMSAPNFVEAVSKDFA

[3] = tested on: hippocampal slices prepared from 3×Tg-AD mice; assay: CCh-induced network synchronization, field recordings in CA1 of hippocampal slices from 3×Tg-AD mice; format: cell-based, mouse; conditions: 3×Tg mice (10 month-old) compared to age-matched WT mice
hippocampal CA1 slices = assay: CCh-induced network synchronization, field potential recordings in hippocampal CA1 slices from WT mice; format: cell-based, mouse; conditions: 50 μM bath-perfusion, mice 6 months old
Excerpt: (§1) Comparing CCh-induced network synchronization in the hippocampal CA1 slices from WT and α7−/− mice (6 months old) using field potential recordings allowed testing of whether α7-nAChRs contribute to network synchronization and seizure susceptibility.

α7−/− slices = assay: CCh-induced network synchronization, field potential recordings in hippocampal CA1 slices from α7−/− mice; format: cell-based, mouse; conditions: 50 μM, mice 6 months old
Excerpt: as §1

[4] = molecular target: T2, α7-containing-nAChRs in nAChR β2 subunit knockout mice (Mus musculus, UniProt P49582); format: cell-based
T2 construct: MS/DB neurons derived from nAChR β2 subunit knock-out mice; endogenous in cells; host or cells: acutely dissociated MS/DB neurons of nAChR β2 knockout mice (C57/Bl6 background)
T2 sequence (P49582 23-502): as the sequence (Q05941 23-502) above, with A402T counted along it

heteromeric α7β2-nAChRs = molecular target: T3, heteromeric α7β2-nAChRs (Rattus norvegicus, UniProt P12390+Q05941); format: cell-based
T3 construct: expressed in transfected cells; host or cells: Xenopus laevis oocytes injected with cRNA (pGEMHE vector)
T3 sequence (Q05941 23-502): as the sequence (Q05941 23-502) above
T3 sequence (P12390 25-500): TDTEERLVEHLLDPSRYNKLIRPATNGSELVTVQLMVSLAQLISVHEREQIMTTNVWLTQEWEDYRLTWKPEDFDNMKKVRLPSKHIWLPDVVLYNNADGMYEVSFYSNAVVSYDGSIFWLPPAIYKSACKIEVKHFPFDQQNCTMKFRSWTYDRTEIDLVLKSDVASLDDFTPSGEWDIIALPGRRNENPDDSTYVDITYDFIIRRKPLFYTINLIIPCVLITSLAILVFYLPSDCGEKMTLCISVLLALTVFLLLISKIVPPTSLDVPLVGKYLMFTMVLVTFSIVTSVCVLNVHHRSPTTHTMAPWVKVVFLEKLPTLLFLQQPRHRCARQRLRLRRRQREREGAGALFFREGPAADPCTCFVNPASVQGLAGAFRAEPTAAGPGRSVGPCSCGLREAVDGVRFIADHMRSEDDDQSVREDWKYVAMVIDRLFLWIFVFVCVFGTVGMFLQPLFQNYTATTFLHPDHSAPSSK

[5] = tested on: cultured hippocampal pyramidal neurons; assay: Patch-clamp recording of neuronal excitability in cultured hippocampal neurons after chronic Aβ; format: cell-based, mouse; conditions: for neuronal excitability (spontaneous bursting AP firing, input-output curve): chronic exposure, treated vs untreated neurons
MS/DB neurons = assay: Current-clamp recording of spontaneous action potential firing in dissociated MS/DB neurons; format: cell-based, rat; conditions: 1 μM
GABAA receptors = assay: GABA-induced currents in rat MS/DB cholinergic neurons; format: cell-based; conditions: 1 nM peptide; 0.1 mM GABA
[6] = tested on: α7−/− hippocampal neurons; assay: Aβ toxicity in α7−/− hippocampal neurons; format: cell-based, mouse; conditions: α7−/− compared to WT hippocampal neurons
[7] = molecular target: T4, α7β2-nAChRs on MS/DB cholinergic neurons (Mus musculus, UniProt P49582+Q9ERK7); assay: Choline-induced currents in MS/DB neurons from wild-type mice; format: cell-based; conditions: 1 nM
T4 construct: Compared to MS/DB neurons from WT mice; endogenous in cells; host or cells: acutely dissociated MS/DB neurons of wild-type C57/Bl6 mice
T4 sequence (P49582 23-502): as the sequence (Q05941 23-502) above, with A402T counted along it
T4 sequence (Q9ERK7 26-501): as the sequence (P12390 25-500) above, with A350T, V371M, R379Q, T383A, P387L, V391M, V449I, P468S counted along it

neurons from α7−/− mice = assay: Neuronal excitability after chronic Aβ in cultured hippocampal neurons from α7−/− mice; format: cell-based, mouse; conditions: chronic exposure
Excerpt: To further investigate whether pharmacological block of α7-nAChR eliminated the expression of neuronal hyperexcitation after chronic Aβ exposure. […] Comparing cultured neurons from WT and α7−/− mice could further establish if α7-nAChRs play a role in the induction of Aβ-induced neuronal hyperexcitation by comparing cultured neurons from WT and α7−/− mice.

[8] = tested on: cultured mouse hippocampal neurons; assay: Aβ-induced degeneration of cultured hippocampal neurons (DAPI staining, LDH levels); format: cell-based
[9] = tested on: ionotropic glutamate receptors; assay: Glutamate-induced currents in rat MS/DB cholinergic neurons; format: cell-based; conditions: 1 nM peptide; 1 mM glutamate
[10] = chronic Aβ, neurons from WT mice

α7β2-nAChRs on MS/DB cholinergic neurons (Rattus norvegicus, UniProt P12390+Q05941), sequence (Q05941 23-502): as the sequence (Q05941 23-502) above
α7β2-nAChRs on MS/DB cholinergic neurons (Rattus norvegicus, UniProt P12390+Q05941), sequence (P12390 25-500): as the sequence (P12390 25-500) above

Molecule: monomeric Aβ1-42: Aβ1-42 reconstituted in DMSO, predominant monomeric form
- suppression of choline-induced responses by peptide form [1]: failed to suppress

Molecule: CNCC/C=C/c1cccnc1 [RJR-2403]
- whole-cell current response to agonist [1]: insensitive
- whole-cell current response to agonist [2]: mimicked

Molecule: C[N+](C)(C)CCOC(N)=O [CCh, carbachol]
- induced network synchronization [3]: much stronger network synchronization
- induced network synchronization (hippocampal CA1 slices): induced two types of network synchronizations
- induced network synchronization (α7−/− slices): failed to induce θ-oscillations

Molecule: CO[C@H]1CC=C2CCN3CCC4=C(CC(=O)OC4)[C@]23C1 [DHβE, dihydro-β-erythroidine]
- antagonist sensitivity of choline-induced currents ([4]; MS/DB neurons from β2 knockouts compared with wild-type): lower sensitivity
- Hill coefficient of concentration-inhibition curve ([1]; 10 mM choline-induced currents, MS/DB neurons, n=8): 0.9
- IC50 ([1]; 10 mM choline, MS/DB neurons, n=8, read-out: IC50 for inhibition of choline-induced currents): 0.17 µM
- potency difference as inhibitor of choline-induced current, MS/DB vs VTA neurons ([1]; printed as less potent in MS/BD than in VTA neurons): ~500 fold
- Hill coefficient of concentration-inhibition curve ([2]; 10 mM choline-induced currents, VTA neurons): 0.3
- IC50 ([2]; 10 mM choline, VTA neurons, n=7, read-out: IC50 for inhibition of choline-induced currents): > 100 µM
- sensitivity to functional blockade, α7β2-nAChR compared with homomeric α7-nAChR (heteromeric α7β2-nAChRs; 10 mM choline-induced currents in oocytes): more sensitive

Molecule: fibrillar Aβ: Aβ1-42 stock incubated at 37° C. for 48 h at pH 6.0, predominantly fibrillar form
- suppression of choline-induced responses by peptide form [1]: weaker inhibitory effect
- mean resting membrane potential of treated neurons ([5]; 10 days treatment, n=11, untreated −62.8±3.3 mV): −53.4±2.6 mV
- neuronal excitability (spontaneous bursting AP firing, input-output curve) [5]: spontaneous bursting AP firing was observed

Molecule: oligomeric Aβ1-42: Aβ1-42 reconstituted in distilled water, predominantly oligomeric form
- suppression of choline-induced responses by peptide form [1]: greatest suppression

Molecule: C[C@@H]1O[C@H](C[N+](C)(C)C)C[C@H]1O [muscarine]
- sensitivity of spontaneous action potential firing (MS/DB neurons): insensitive

Molecule: Aβ1-42: amyloid beta peptides at positions 1-42 of the amyloid precursor protein (APP), purchased from rPeptide
- suppression of choline-induced currents [4]: failed to suppress
- effect on ACh-induced current [1]: evident
- effect on choline-induced currents [2]: not sensitive
- inhibition of GABA-induced currents (GABAA receptors): insensitive
- toxic effects on hippocampal neurons [6]: did not show toxic effects
- sensitivity of choline-induced currents to peptide (heteromeric α7β2-nAChRs): demonstrated sensitivity
- suppression of choline-induced currents [7]: did suppress
- induction of neuronal hyperexcitation (neurons from α7−/− mice): failed to evoke neuronal hyperexcitation
- sEPSC amplitude [5, 10]: but not amplitude
- sEPSC frequency [5, 10]: enhances sEPSC frequency
- neuronal excitability (spontaneous bursting AP firing, input-output curve) [5]: shifted leftwards
- cytotoxicity by LDH levels ([8]; 100 nM for 4, 7 and 10 days, primary cultured hippocampal neurons): increased LDH levels
- loss of cultured hippocampal neurons (DAPI staining) ([8]; 100 nM over several days): cell loss in an exposure-time-dependent manner
- inhibition of glutamate-induced currents [9]: insensitive

Molecule: CCN1C[C@]2(COC(=O)c3ccccc3N3C(=O)C[C@H](C)C3=O)CC[C@H](OC)[C@@]34[C@@H]5C[C@H]6[C@H](OC)[C@@H]5[C@](O)(C[C@@H]6OC)[C@@](O)([C@@H](OC)[C@H]23)[C@@H]14 [MLA, methyllycaconitine]
- effect on enhanced neuronal excitation after chronic Aβ exposure ([5]; following a depolarizing pulse, MLA pretreated for 2 min, Aβ oligomers for 9 days): reversibly eliminated
